Tests used:
[1] = MTT antiproliferative assay (neutral control); conditions: human
MDA-MB-231 cell lines = experiment: MTT antiproliferative assay; format: cell-based, human; conditions: Homo sapiens, MDA-MB-231; virtually screened NCI hits, Table S17; read-out: MDA-MB-231 (IC50)
MCF-7 cell lines = experiment: MTT antiproliferative assay; format: cell-based, human; conditions: Homo sapiens, MCF7; virtually screened NCI hits, Table S17; read-out: MCF-7 (IC50)
[2] = tested on: MNU-induced breast cancer tissue; experiment: Histopathology of breast sections; format: in vivo, Wistar rats; conditions: 50 mg/kg of bwt
Description: The impact of selected leads on BC tissue was registered after their administration to experimental animals with MNU-induced BC (Figure 9 and Supplementary Material Figures S211–S218). […] In contrast to this, the administered leads were harmless in both concentrations, neutralizing the MNU-induced changes, judging by the lobuloalveolar units and cuboidal epithelial cells found (Figure 9C,D, and Supplementary Material Figures S214–S218). […]
Histopathological Studies
histopathological changes. […]

[3] = Serum biochemical markers after treatment of MNU-induced rats; format: in vivo, Wistar rats; set-up: TBC: unit not given here; conditions: dose 50 mg/kg
Method: (§1) Rats were housed at 3 per cage and
(§2) The breast cancer was induced after the MNU (Sigma Aldrich CAS No. 684-93-5) administration. An aqueous solution at a concentration of 10 mg/ml was made by wetting the NMU powder with 3% acetic acid and then dissolving it in 0.9% NaCl solution; a fresh solution was prepared for each injection. Rats were given intraperitoneal (i.p.) 50 mg/kg of MNU on the 50th day of age. Animals were divided into different groups with six animals in each group. Group I (intact control) received 0.9% NaCl solution.
(§3) Groups II-IV and V-VII were introduced with MNU. Two weeks after MNU treatment, animals were treated orally with synthesized compounds and control substances (5 and 50 mg/kg, for groups II-IV and V-VII, respectively) by gavage once per day for six weeks. Animals in the intact control group and untreated MNU group were given vehicle (Tween 80) according to the experimental protocol. […]
Upon finishing the treatment with synthesized compounds, animals were sacrificed, and plasma, serum, and liver samples were collected.
Measurement of Serum Biochemical Markers
The activities of AST and ALT on 340 nm, and ALP on 405 nm, were determined by UV-Vis kinetic methods according to recommendations of the Expert Panel of the IFCC (International Federation of Clinical Chemistry). The colorimetric methods were used for the determination of total bilirubin (Jendrassik-Grof 550 nm method). All kinetic and colorimetric measurements were recorded using a Perkin-Elmer Lambda 25 UV/Vis spectrophotometer. […]

[4] = tested on: MNU-induced breast cancer; experiment: In vivo anticancer screening, MNU-induced mammary tumorigenesis; set-up: species or system female Wistar rats; conditions: dose 50 mg/kg (compounds per os after MNU; MNU alone i.p.)
[5] = Liver oxidative stress markers after treatment of MNU-induced rats; format: in vivo, Wistar rats; conditions: liver, dose 50 mg/kg
Method: as §1, §2, §3
Upon finishing the treatment with synthesized compounds, animals were sacrificed, and plasma, serum, and liver samples were collected. […]
Determination of Antioxidant Markers in Liver Homogenate
Rat liver samples were homogenized in phosphate buffer (5 mM, pH = 7.4) to give a 10% (w/v) liver homogenate and then centrifuged at 4000 rpm for 15 min at 4°C. The supernatant of liver homogenate was used for the estimation of reduced glutathione (GSH) and catalase (CAT) levels by the colorimetric method. The contents of malondialdehyde (MDA) in the supernatant of the liver homogenates were determined using 1,1,3,3-tetraethoxypropane as standard. Total protein concentrations were determined according to the method of Lowry using bovine serum albumin as […]

[6] = MFD 1000 mg/kg (MNU: MTD 100 mg/kg bwt), 5 days

C[C@H]1CCC/C=C/[C@@H]2C[C@H](O)C[C@H]2[C@H](O)/C=C/C(=O)O1 [BFA, Brefeldin A, reference compound]
IC50 at 48 h [1]: > 100 µM
IC50 (MDA-MB-231 cell lines): > 100 µM
IC50 (MCF-7 cell lines): 9.01 µM

CN(N=O)C(N)=O [MNU, Methyl nitrosourea, reference compound]
breast section histopathology [2]: mammary gland carcinoma alongside with massive proliferation of neoplastic epithelial cells (EC)
colon section histopathology [6]: induced colon
heart section histopathology [6]: interstitial hydrops
kidney section histopathology [6]: large size neoplastic lymphocytes infiltrated into the interstitial
liver section histopathology [6]: numerous numbers of medium to large size neoplastic lymphocytes
lung section histopathology [6]: alveolar bronchiolar
spleen section histopathology [6]: faded red pulp
WL after MFD (day 1, mg) (average body weight at day 1, dosing at MFD): 305.44 ± 0.62 mg
MFD (5 days) (maximum feasible (or tolerated) dose, 5 days per os, 5-1000 mg/kg bwt): 100 mg/kg
ALP (A/L) ([3]; serum): 232.54±0.32 A/L
ALT (A/L) ([3]; serum): 157.31 A/L
AST (U/L) ([3]; serum): 135.43 U/L
γ-GT (U/L) ([3]; serum): 19.43±0.42 U/L
TBC ([3]; total bilirubin content): 32.34
Tumor Burden (week) [4]: 4.55 ± 0.15 *^,‡,§,‖,┴ week
Tumor Latency (week) [4]: 5 *^,†,‡,§,‖,┴ week
Tumor Volume (mm^3) [4]: 4.48 ± 0.54 mm^3
CAT ([5]; catalase activity): 3.08±0.68
TBARS [5]: 3.31 ± 0.72 nmol/mg
SOD (U/mg) ([5]; superoxide dismutase activity): 3.32±0.14 U/mg
TP ([5]; total protein content): 51.32 ± 0.43 g/L
